Assay results: ChEMBL document CHEMBL1142752, “Synthesis and antiviral activities of novel N-alkoxy-arylsulfonamide-based HIV protease inhibitors” (Bioorg Med Chem Lett, 2005)
pKi: −log10 of the molar value.

Target: Human immunodeficiency virus type 1 protease (Human immunodeficiency virus 1, UniProt Q72874)
Assay: Inhibition constant against HIV-1 protease

SMILES	pKi
Nc1cccc(S(=O)(=O)N(C[C@@H](O)[C@H](Cc2ccccc2)NC(=O)O[C@H]2CO[C@H]3OCC[C@H]32)OC2CCCCC2)c1	11.30
CCC(CC)ON(C[C@@H](O)[C@H](Cc1ccccc1)NC(=O)OC(C)(C)C)S(=O)(=O)c1ccc(OC)cc1	8.49
COC(=O)N[C@H](C(=O)N[C@@H](Cc1ccccc1)[C@H](O)CN(OC1CCCC1)S(=O)(=O)c1ccc(OC)cc1)C(C)(C)C	10.05
COc1ccc(S(=O)(=O)N(C[C@@H](O)[C@H](Cc2ccccc2)NC(=O)OC(C)(C)C)Oc2ccccc2)cc1	7.66
COc1ccc(S(=O)(=O)N(C[C@@H](O)[C@H](Cc2ccccc2)NC(=O)OC(C)(C)C)OCC(C)C)cc1	8.40
COc1ccc(S(=O)(=O)N(C[C@@H](O)[C@H](Cc2ccccc2)NC(=O)OC(C)(C)C)OC2CCCC2)cc1	8.80
COc1ccc(S(=O)(=O)N(C[C@@H](O)[C@H](Cc2ccccc2)NC(=O)OC(C)(C)C)OC2CCCCC2)cc1	8.55
Nc1ccc(S(=O)(=O)N(C[C@@H](O)[C@H](Cc2ccccc2)NC(=O)O[C@H]2CO[C@H]3OCC[C@H]32)OC2CCCCC2)cc1	10.74
COc1ccc(S(=O)(=O)N(C[C@@H](O)[C@H](Cc2ccccc2)NC(=O)OC(C)(C)C)OC(C)C)cc1 [ENTRY A]	7.85
COc1ccc(S(=O)(=O)N(C[C@@H](O)[C@H](Cc2ccccc2)NC(=O)OC(C)(C)C)OCC2CCCCC2)cc1	7.92

More lines, now with the values ahead:

pKi	SMILES
> 11.30	O=C(N[C@@H](Cc1ccccc1)[C@H](O)CN(OC1CCCCC1)S(=O)(=O)c1ccc2c(c1)OCCO2)O[C@H]1CO[C@H]2OCC[C@H]21
> 11.30	Nc1ccc(S(=O)(=O)N(C[C@@H](O)[C@H](Cc2ccccc2)NC(=O)O[C@H]2CO[C@H]3OCC[C@H]32)OC2CCCC2)cc1
> 11.30	O=C(N[C@@H](Cc1ccccc1)[C@H](O)CN(OC1CCCC1)S(=O)(=O)c1ccc(O)cc1)O[C@H]1CO[C@H]2OCC[C@H]21
> 11.30	COc1ccc(S(=O)(=O)N(C[C@@H](O)[C@H](Cc2ccccc2)NC(=O)O[C@H]2CO[C@H]3OCC[C@H]32)OC2CCCC2)cc1
> 11.30	COc1ccc(S(=O)(=O)N(C[C@@H](O)[C@H](Cc2ccccc2)NC(=O)O[C@@H]2COC3OCCC32)OC2CCCC2)cc1 (some centres not stated)
> 11.30	COc1ccc(S(=O)(=O)N(CC(O)C(Cc2ccccc2)NC(=O)[C@H](CC(N)=O)NC(=O)c2ccc3ccccc3n2)OC2CCCC2)cc1 (some centres not stated)
> 11.30	Nc1cccc(S(=O)(=O)N(C[C@@H](O)[C@H](Cc2ccccc2)NC(=O)O[C@H]2CO[C@H]3OCC[C@H]32)OC2CCCC2)c1
> 11.30	O=C(N[C@@H](Cc1ccccc1)[C@H](O)CN(OC1CCCC1)S(=O)(=O)c1ccc2c(c1)OCCO2)O[C@H]1CO[C@H]2OCC[C@H]21
> 11.30	O=C(N[C@@H](Cc1ccccc1)[C@H](O)CN(OC1CCCCC1)S(=O)(=O)c1ccc2c(c1)OCO2)O[C@H]1CO[C@H]2OCC[C@H]21
> 11.30	O=C(N[C@@H](Cc1ccccc1)[C@H](O)CN(OC1CCCC1)S(=O)(=O)c1ccc2c(c1)OCO2)O[C@H]1CO[C@H]2OCC[C@H]21
> 11.30	O=C(N[C@@H](Cc1ccccc1)[C@H](O)CN(OC1CCCCC1)S(=O)(=O)c1ccc(O)cc1)O[C@H]1CO[C@H]2OCC[C@H]21
9.72	COc1ccc(S(=O)(=O)N(C[C@@H](O)[C@H](Cc2ccccc2)NC(=O)OC2CCOC2)OC2CCCC2)cc1 (some centres not stated)
